Values quoted from earlier work as cited in patent publication US8445438B2, “Compositions comprising capture peptides for A β-amyloid peptide” (Recombinant Technologies LLC, priority 2008, dated 2013).

System: Aβ
Settings: peptide based on the GxFxGxF scaffold

Aβ, sequence (P05067 672-711 limits assumed): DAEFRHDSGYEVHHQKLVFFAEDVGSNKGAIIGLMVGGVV

RGTWEGKW (listed as Homo sapiens)
cellular toxicity: reduce cellular toxicity
